In patent publication US20060040944A1, “5-Aza-7-deazapurine derivatives for treating Flaviviridae” (priority 2004, published 2006):
Like-named read-outs stand apart in the source and are kept apart here.

Legend:
MT-4 = MT-4 cell test (Table 2); assay type: cell-based; settings: MT-4 cells, no virus named
DENV-2 = assay: Antiviral activity against DENV-2 (Table 2)
[1] = system: host cells of the West Nile test (not named); assay: Cytotoxicity assay (CC50), West Nile column; settings: read-out: West Nile CC50; concentration reducing cell number by 50%; cell line not named
Yellow Fever = assay: microbe, parasite or virus in culture; assay type: cell-based, Yellow fever virus, vaccine strain 17D (YFV-17D)
[2] = system: host cells of the DENV-2 test (not named); assay: Cytotoxicity assay (CC50), DENV-2 column; settings: read-out: DENV-2 CC50; concentration reducing cell number by 50%; cell line not named
West Nile = assay: Antiviral activity against West Nile virus (Table 2); settings: read-out: West Nile EC50
BVDV = assay: microbe, parasite or virus in culture; assay type: cell-based; settings: Bovine viral diarrhea virus isolates and strains, MDBK, read-out: BVDV EC50
[3] = Cytotoxicity assay (CC50), West Nile column
in vitro [4] = settings: cattle (Bos taurus)
[5] = Cytotoxicity assay (CC50), DENV-2 column
in vitro [6] = settings: hamster

SMILES | EC50 (MT-4) | CC50 (BT cells) | CC50 (BHK-21 cells) | EC50 (DENV-2; read-out: DENV-2 EC50, DENV-2) | CC50 [1] | EC50 (Yellow Fever; read-out: Yellow Fever EC50) | CC50 [2] | EC50 (West Nile) | EC50 (MT-4; Homo sapiens, MT4) | EC50 (BVDV) | EC50 (DENV-2; Dengue virus, DENV2, read-out: DENV-2 EC50) | CC50 at 4 days [3] | EC50 (Yellow Fever; Yellow fever virus, BHK-21, read-out: Yellow Fever EC50) | CC50 (in vitro [4]) | CC50 at 4 days [5] | CC50 (in vitro [6])
Nc1nc(=O)n2ccn([C@H]3C[C@H](O)[C@@H](CO)O3)c2n1 [2-amino-8-(β-D-2-deoxyribo-furanosyl)-imidazo[1,2-a]-s-triazin-4-one] | > 100 µM | > 100 µM | > 100 µM | > 100 µM | > 100 µM | > 100 µM | > 100 µM | > 100 µM |  |  |  |  |  |  |  | 
Nc1nc(=O)n2ccn([C@@H]3O[C@H](CO)[C@@H](O)[C@H]3O)c2n1 [2-amino-8-(β-D-ribo-furanosyl)-imidazo[1,2-a]-s-triazin-4-one] |  |  |  |  |  |  |  | > 100 µM | > 100 µM | 31 µM | > 100 µM | > 100 µM | > 100 µM | > 100 µM | > 100 µM | > 100 µM
